{"source": "patent US20090298757A1", "about": "“OXYNTOMODULIN ANALOGUES AND THEIR EFFECTS ON FEEDING BEHAVIOUR” (Imperial Innovations Limited, priority 2005, published 2009)", "tested_on": "C57BL/6 mice", "assay": "Food intake in fasted mice after injection of peptide", "type": "in vivo, mouse", "conditions": "for Multiples of food inhibition Factor: Example 9, food intake during the first hour after injection, activity relative to oxm (1400 nmol/kg); for potency relative to oxyntomodulin: as mentioned in the examples section, times that of oxyntomodulin", "procedure": "Animals. All animal procedures were approved by the British Home Office Animals (Scientific Procedures) Act 1986 (Project License number 70/5516). Male C57BL/6 mice and male Wistar rats were maintained in individual cages under controlled temperature (21-23° C.) with ad libitum access to standard chow (RM1 diet, SDS Ltd, Witham, Essex, UK) and to water. The light cycle was 14 hours light and 10 hours dark with ‘dawn’ at 07:00, lights full on at 07:30, ‘dusk’ at 21:00 with lights off at 21:30. These times were fixed in the animal facility.\nAll animals were handled almost daily for on average nine days prior to the first study. During the acclimatization period, each animal received two saline injections at least two days apart in order to further acclimatize to the procedure on the study days.\nIntra-peritoneal (IP) injections. IP injections were administered to mice via a 0.5 ml syringe with a 29-gauge needle (maximum injection volume 0.1 ml). Maximum volume administered IP was 0.1 ml.\nStudy protocol: C57BL/6 mice (20-35 g) were injected with the peptide under investigation following a 20-hour fast. Wistar rats were injected following a 24-hour fast. A pre-weighed quantity of chow was presented immediately after injection. The remaining food was measured at regular time intervals (e.g. 1, 2, 3, 4, 6, 8, 24 and 48 hours following injection) and food intake calculated.", "key": {"[1]": {"conditions": "Example 57, mice, 6 or 20 nmol/kg, vs saline"}, "[2]": {"conditions": "Example 6, mice, 2700 nmol/kg, 0-8 h"}, "[3]": {"conditions": "Example 7, mice, 1000 nmol/kg, 0-24 h"}, "[4]": {"conditions": "Example 1, fasted mice, 2700 nmol/kg by injection, intervals up to 32 h, vs saline and oxm"}, "[5]": {"conditions": "Example 11, mice, 100 nmol/kg, vs oxm(xx15-24)"}}, "note": "Entries after “also recorded” stand apart in the source; their conditions may differ. Non-standard residues stand in square brackets, D forms with d. No end group written: not given here. *: point of attachment. Lauroyl = CCCCCCCCCCCC(=O)*"}
{"substance": "Ala2-oxm: oxm with Ser at residue 2 substituted by Ala (HAQGTFTSDYSKYLDSRRAQDFVQWLMNTKRNRNNIA; Oxyntomodulin; UniProt P01275 53-89, looked up, variant S2A)", "values": [{"measurement": "food intake", "setting": "Example 5, fasted mice, 2700 nmol/kg, 0-4 h, vs saline and oxm", "value": "does NOT significantly reduce food intake compared to saline"}]}
{"substance": "CH3—CO—NH—CRH—CO-Ser Gln Gly Thr Phe Thr Ser Asp Tyr Ser Lys Tyr Leu Asp Ser Arg Arg Ala Gln Asp Phe Val Gln Trp Leu Met Asn Thr Lys Arg Asn Arg Asn Asn Ile Ala [Acetyloxyntomodulin]", "values": [{"measurement": "onset of anorectic effect", "setting": "Example 14, mice, 1400 mmol/kg (so in the source)", "value": "later acting than that of oxyntomodulin"}]}
{"substance": "D-His Ala Gln Gly Thr Phe Thr Ser Asp Tyr Ser Lys Tyr Leu Asp Ser Arg Arg Ala Gln Asp Phe Val Gln Trp Leu Met Asn Thr Lys Arg Asn Arg Asn Asn Ile Ala (XAQGTFTSDYSKYLDSRRAQDFVQWLMNTKRNRNNIA; D-His at position 1; Oxm Analogue; D-His) [D-His-Ala2-oxm]", "values": [{"measurement": "Multiples of food inhibition Factor", "setting": "mice", "value": 2.5}, {"measurement": "minimum effective dose", "setting": "Example 43, mice, food intake", "value": "approximately 250 nmol/kg"}, {"measurement": "effectiveness on food intake", "setting": "Example 43, mice, various doses, vs oxm", "value": "more effective than oxm"}]}
{"substance": "D-His Ala Gln Gly Thr Phe Thr Ser Asp Tyr Ser Lys Tyr Leu Glu Glu Glu Ala Val Arg Leu Phe Ile Glu Trp Leu Lys Asn Gly Gly Pro Ser Ser Asn Asn Ile Ala ([dH]AQGTFTSDYSKYLEEEAVRLFIEWLKNGGPSSNNIA) [D-His1-Ala2-oxm(xx15-24)(xx27-33)]", "values": [{"measurement": "duration of effect on food intake", "setting": "Example 8, mice, 100 mmol/kg (so in the source)", "value": "especially long-acting"}, {"measurement": "Multiples of food inhibition Factor", "setting": "mice", "value": "1000-4000"}, {"measurement": "potency relative to oxyntomodulin", "value": "1-4000 times"}]}
{"substance": "D-His Ser Asp Gly Thr Phe Thr Ser Asp Tyr Ser Lys Tyr Leu Glu Glu Glu Val Val Arg Leu Phe Ile Gln Trp Leu Lys Asn Gly Gly Pro Ser Lys Asn Asn Ile Ala Ala Ala Glu Glu Lys-Lauroyl ([dH]SDGTFTSDYSKYLEEEVVRLFIQWLKNGGPSKNNIAAAEEK(Lauroyl))", "values": [{"measurement": "cumulative food intake", "setting": "[1]", "value": "markedly decreased cumulative food intake in comparison to the saline control"}]}
{"substance": "D-His Ser Gln Gly Thr Phe Thr Ser Asp Tyr Ser Lys Tyr Leu Asp Ser Arg Arg Ala Gln Asp Phe Val Gln Trp Leu Lys Asn Gly Gly Pro Ser Ser Gly Ala Pro Pro Pro Ser ([dH]SQGTFTSDYSKYLDSRRAQDFVQWLKNGGPSSGAPPPS) [D-His-oxm26ex]", "values": [{"measurement": "cumulative food intake", "setting": "Example 13, mice, 1000 nmol/kg (FIG. 21d)", "value": "reduction in food intake in comparison to oxm26ex"}]}
{"substance": "D-Ser Ala Asp Gly Thr Phe Thr Ser Asp Tyr Ser Lys Tyr Leu Glu Glu Glu Ala Val Arg Leu Phe Ile Gln Trp Leu Lys Asn Gly Gly Pro Ser Lys Asn Asn Ile Ala Ala Ala Glu Glu Lys-Lauroyl", "values": [{"measurement": "cumulative food intake", "setting": "[1]", "value": "markedly decreased cumulative food intake in comparison to the saline control"}]}
{"substance": "Des-His-oxm: oxm analogue with substitution of the first amino acid (His 1) (SQGTFTSDYSKYLDSRRAQDFVQWLMNTKRNRNNIA; Oxyntomodulin; UniProt P01275 53-89, looked up, variant H1*)", "values": [{"measurement": "food intake", "setting": "Example 12, fasted mice, 2700 nmol/kg, 0-4 h", "value": "reduced food intake"}, {"measurement": "duration of action on food intake", "setting": "Example 12, fasted mice, 2700 nmol/kg, vs native oxm", "value": "more sustained action than native oxm"}]}
{"substance": "HSQGTFTSDYSKYLDSRRAQDFVQWLKNGGPSSGAPPPS [oxm26ex]", "values": [{"measurement": "food intake", "setting": "[2]", "value": "potent and long-lasting effect on food intake"}, {"measurement": "food intake", "setting": "[3]", "value": "significantly inhibit feeding both compared to saline control and compared to the oxm-treated group"}, {"measurement": "duration of effect on food intake", "setting": "Example 7, mice, 1000 nmol/kg, vs exendin", "value": "not as long-lasting as those of exendin"}]}
{"substance": "HSQGTFTSDYSKYLEEEAAQDFVQWLMNTKRNRNNIA [oxm(xx15-18)]", "values": [{"measurement": "food intake", "setting": "[4]", "value": "increased and prolonged inhibition of food intake compared to both saline and oxm"}]}
{"substance": "HSQGTFTSDYSKYLEEEAIRLFIEWLMNTKRNRNNIA [Ile19-oxm(xx15-24)]", "values": [{"measurement": "potency on food intake", "setting": "Example 11, mice, 100 nmol/kg, 0-24 h, vs oxm(xx15-24)", "value": "equipotent with or slightly more potent than oxm(xx15-24)"}, {"measurement": "onset and duration of activity on food intake", "setting": "[5]", "value": "slightly delayed action as compared with oxm (xx15-24)"}, {"measurement": "onset and duration of activity on food intake", "setting": "Example 11, mice, 100 nmol/kg, vs oxm(xx15-24), listed as SEQ ID NO: 34", "value": "delayed onset"}]}
{"substance": "HSQGTFTSDYSKYLEEEAVRLFIEWLMNTKRNRNNIA [oxm(xx15-24)]", "values": [{"measurement": "food intake", "setting": "[4]", "value": "greater and more prolonged appetite suppressant effect; also recorded: more potent effect on feeding than oxm"}, {"measurement": "cumulative food intake", "setting": "Example 2, mice, 300 nmol/kg, first 8 hours post-injection (FIG. 4c)", "value": "reduces food intake only slightly less than exendin over the first 8 hours post-injection"}, {"measurement": "Multiples of food inhibition Factor", "setting": "mice", "value": 400}, {"measurement": "food intake", "setting": "Example 27, mice, 100 nmol/kg", "value": "most effective"}, {"measurement": "potency relative to oxyntomodulin", "value": 400, "unit": "times"}]}
{"substance": "HSQGTFTSDYSKYLEEEAVRLFVQWLMNTKRNRNNIA [oxm(xx15-21)]", "values": [{"measurement": "food intake", "setting": "[4]", "value": "greater and more prolonged appetite suppressant effect"}, {"measurement": "Multiples of food inhibition Factor", "setting": "mice", "value": 200}, {"measurement": "potency relative to oxyntomodulin", "value": 200, "unit": "times"}]}
{"substance": "HSQGTFTSDYSKYLEEEVVRLFIEWLMNTKRNRNNIA [18Val-oxm(xx15-24)]", "values": [{"measurement": "onset and duration of activity on food intake", "setting": "[5]", "value": "delayed onset of activity as compared with oxm(xx15-24) whilst the activity is more prolonged"}, {"measurement": "onset and duration of activity on food intake", "setting": "Example 11, mice, 100 nmol/kg, vs oxm(xx15-24), listed as SEQ ID NO: 31", "value": "delayed onset"}]}
{"substance": "HSQGTFTSDYSKYLEEEVVRLFVQWLMNTKRNRNNIA", "values": [{"measurement": "food intake", "setting": "Example 16, mice, 30 nmol/kg", "value": "reduction in food intake from 0 to 2 hours"}]}
{"substance": "His Ser Gln Gly Thr Phe Thr Ser Asp Tyr Ser Lys Tyr Leu Asp Ser Arg Arg Ala Gln Asp Phe Val Gln Trp Leu Arg Asn Gly Gly Pro Ser Ser Asn Asn Ile Ala (HSQGTFTSDYSKYLDSRRAQDFVQWLRNGGPSSNNIA; Arg27-oxm(ex27-33))", "values": [{"measurement": "food intake", "setting": "Example 17, mice, 300 nmol/kg", "value": "reduction in food intake from 0 to 1 hours"}, {"measurement": "food intake", "setting": "Example 30, mice, 1400 or 300 nmol/kg, vs oxm(ex27-33)", "value": "reduce the effect of oxm(ex27-33) on food intake"}]}
{"substance": "His Ser Gln Gly Thr Phe Thr Ser Asp Tyr Ser Lys Tyr Leu Asp Ser Arg Arg Ala Gln Asp Phe Val Gln Trp Leu Lys Asn Gly Gly Pro Asn Ser Asn Asn Ile Ala (HSQGTFTSDYSKYLDSRRAQDFVQWLKNGGPNSNNIA; Asn32-oxm(ex27-33))", "values": [{"measurement": "food intake", "setting": "Example 31, mice, 300 nmol/kg, vs oxm(ex27-33)", "value": "reduces the effect of oxm(ex27-33) on food intake"}]}
{"substance": "His Ser Gln Gly Thr Phe Thr Ser Asp Tyr Ser Lys Tyr Leu Asp Ser Arg Arg Ala Gln Asp Phe Val Gln Trp Leu Lys Asn Gly Gly Pro Ser Ser Asn Asn Ile Ala (HSQGTFTSDYSKYLDSRRAQDFVQWLKNGGPSSNNIA; Oxm Analogue) [oxm(xx27-33)]", "values": [{"measurement": "food intake", "setting": "Example 3, mice, 2700 nmol/kg, vs saline and oxm", "value": "increased and prolonged inhibition of food intake compared to both saline and oxm"}, {"measurement": "Multiples of food inhibition Factor", "setting": "mice", "value": 7}]}
{"substance": "His Ser Gln Gly Thr Phe Thr Ser Asp Tyr Ser Lys Tyr Leu Glu Glu Glu Ala Val Arg Leu Phe Ile Glu Trp Leu Lys Asn Gly Gly Pro Ser Ser Gly Ala Pro Pro Pro Ser [oxm(xx15-39)]", "values": [{"measurement": "food intake", "setting": "[2]", "value": "potent and long-lasting effect on food intake"}, {"measurement": "food intake", "setting": "[3]", "value": "significantly inhibit feeding both compared to saline control and compared to the oxm-treated group"}]}
